# Laboratory results from paper PMC7555312, “Functional Characterization of Temporin-SHe, a New Broad-Spectrum Antibacterial and Leishmanicidal Temporin-SH Paralog from the Sahara Frog (Pelophylax saharicus)” (International Journal of Molecular Sciences, 2020).
# Where no end group is shown, it is not given here.
# How the values were obtained:
# E. faecalis ATCC 29212 = type: cell-based, Enterococcus faecalis
# Method: (§4) Antimicrobial activity was assessed with a liquid growth inhibition assay performed according to a previously described protocol [14] using the Clinical and Laboratory Standards Institute (CLSI) guidelines. Briefly, in 96-well microtitration plates, mid-log-phase bacteria diluted to 10^6 CFU/mL in Mueller–Hinton (MH) broth were added to different concentrations of synthetic temporin-SHe (1–200 µM, final concentrations) and incubated at 37 °C for 18–20 h, under shaking (150 rpm). For E. faecalis, L. ivanovii and yeasts/fungi, 10^6 CFU/mL suspensions were prepared in LB broth, brain heart infusion (BHI) medium and Yeast Peptone Dextrose (YPD) medium, respectively, and incubation was performed at 30 °C for yeasts/fungi. […] MIC values represent the average of three independent experiments, each performed in triplicate with negative (no peptide) and positive (formaldehyde 0.7%) controls.
# S. aureus ST1065 = assay: Membrane permeabilization assay (ONPG hydrolysis); type: cell-based, Staphylococcus aureus; conditions: increasing peptide concentrations, 2.5 mM ONPG in PBS, 37 °C
# Method: (§1) The ability of temporin-SHe to permeabilize bacterial cytoplasmic membrane was determined using the Gram-negative strain E. coli ML-35p and the Gram-positive strain S. aureus ST1065, as described. Briefly, after incubation of bacteria (37 °C) in 96-well plates with PBS containing 2.5 mM o-nitrophenyl-β-D-galactopyranoside (ONPG) and different concentrations of temporin-SHe, the production of o-nitrophenol (ONP) resulting from hydrolysis of ONPG by intracytoplasmic β-galactosidase was monitored at 405 nm according to the time (Fluostar Galaxy plate reader, BMG Labtech, Champigny-sur-Marne, France). Wells containing bacteria and ONPG, with no peptide, were used as negative control. Two independent experiments were performed in triplicate. Results are from a representative experiment and were expressed as the mean ± S.D.
# [1] = system: L. major promastigotes (strain MHOM/SU/73/5-ASKH); type: cell-based, Leishmania major; conditions: 72 h, 26 °C
# Method: Antileishmanial activity of temporin-SHe was analyzed by a luminescence-based growth inhibition method using Leishmania promastigotes transfected with the vector pGMαNEOαLUC containing the gene LUC that codes for the firefly luciferase, cultured at 26 °C in SDM-79 medium supplemented with 10% fetal calf serum (Gibco), as previously described. Mid-log-phase promastigotes (1.25 × 10^6 cells/mL) were added in 96-well plates containing different concentrations of synthetic temporin-SHe (3.125–50 µM, final concentrations), and incubated 72 h at 26 °C. […] IC50 was determined with GraphPad Prism® 6.0 software (GraphPad Software, La Jolla, CA, USA) using a sigmoidal dose–response curve fitting equation.
# human THP-1 monocytes = assay: Cytotoxicity, MTT assay; conditions: THP-1, 72 h, 37 °C, calculated mean from dose–response curves
# Method: Hemolytic activity of temporin-SHe was determined against human red blood cells (RBCs), as described in [13]. After incubating the peptide (1–200 µM, final concentrations) with RBCs (2 × 10^7 cells) in 100 µL PBS for 1 h at 37 °C, centrifugation was completed (12,000× g, 15 s) and the absorbance of the supernatant was measured at 450 nm. RBCs suspended in PBS or 0.1% (v/v) Triton X-100 yielded an absorbance associated with 0% and 100% hemolysis, respectively. The percentage of hemolysis was calculated as follow: Hemolysis (%) = [A450 (RBCs with peptide)–A450 (RBCs in PBS)]/[A450 (RBCs with Triton X-100)–A450 (RBCs in PBS)]. Cytotoxicity of temporin-SHe was also assessed on human leukemia monocyte cell line THP-1. Briefly, monocytes (6.25 × 10^5 cells/mL) were incubated with different peptide concentrations (3–50 µM, final concentrations) for 72 h at 37 °C, then cell viability was determined by the MTT assay according to a previously described protocol. Results were expressed as the mean of two independent experiments performed in triplicate.
# E. coli ML-35p = assay: Membrane permeabilization assay (ONPG hydrolysis); type: cell-based, Escherichia coli; conditions: increasing peptide concentrations, 2.5 mM ONPG in PBS, 37 °C
# Method: as §1
# B. megaterium = type: cell-based, Bacillus megaterium
# Method: as §4
# L. ivanovii (Li4pVS2) = conditions: liquid growth inhibition (CLSI), 10^6 CFU/mL in brain heart infusion (BHI) medium, 37 °C, 18–20 h, OD 630 nm; mean of three independent experiments in triplicate
# Method: (§2) Antibacterial activity of temporin-SHe was evaluated against Gram-positive bacteria including S. aureus strains (ATCC 25923, ST1065), antibiotic-resistant S. aureus strains (ATCC 43300, ATCC BAA-44), E. faecalis (ATCC 29212), B. megaterium, and L. ivanovii (Li4pVS2), and Gram-negative bacteria including E. coli strains (ATCC 25922, ATCC 35218, ML-35p), S. enterica (serotype Enteritidis), P. aeruginosa (ATCC 27853), A. baumannii (ATCC 19606) and K. pneumoniae (ATCC 13883). Antifungal activity was evaluated against C. albicans (ATCC 90028), C. parapsilosis (ATCC 22019) and S. cerevisiae. ATCC strains were purchased from American-Type Culture Collection (ATCC, Virginia, VA, USA). Antiparasitic activity was determined against promastigotes of several species of Leishmania responsible for visceral, cutaneous and mucocutaneous leishmaniases: L. infantum (strain MHOM/MA/67/ITMAP-263), L. major (strain MHOM/SU/73/5-ASKH), and L. braziliensis (strain MHOM/BR/75/M2904), respectively. Cytotoxicity was assessed against human red blood cells and THP-1 monocytes. Peripheral blood was obtained from healthy adult donors (Établissement Français du Sang, Paris, France). All donors signed informed consent allowing the use of their blood for research purposes.
# (§3) Antimicrobial activity was assessed with a liquid growth inhibition assay performed according to a previously described protocol using the Clinical and Laboratory Standards Institute (CLSI) guidelines. Briefly, in 96-well microtitration plates, mid-log-phase bacteria diluted to 10^6 CFU/mL in Mueller–Hinton (MH) broth were added to different concentrations of synthetic temporin-SHe (1–200 µM, final concentrations) and incubated at 37 °C for 18–20 h, under shaking (150 rpm). For E. faecalis, L. ivanovii and yeasts/fungi, 10^6 CFU/mL suspensions were prepared in LB broth, brain heart infusion (BHI) medium and Yeast Peptone Dextrose (YPD) medium, respectively, and incubation was performed at 30 °C for yeasts/fungi. […] MIC values represent the average of three independent experiments, each performed in triplicate with negative (no peptide) and positive (formaldehyde 0.7%) controls.
# S. aureus ATCC BAA-44 = system: S. aureus ATCC BAA-44
# Method: as §2, §3
# [2] = system: S. enterica (serotype Enteritidis)
# Method: as §2, §3
# [3] = system: all tested Gram-positive bacteria; conditions: range over all tested Gram-positive bacteria
# Method: as §2, §3
# P. aeruginosa ATCC 27853 = type: cell-based, Pseudomonas aeruginosa
# Method: as §4
# E. coli ATCC 25922 = assay: Time-killing assay; type: cell-based, Escherichia coli; conditions: two-fold MIC (50 µM temporin-SHe), 10^6 cfu/mL in PBS, plate counting
# Method: Aliquots were withdrawn at different times and spread onto LB agar plates for cell counting after overnight incubation at 37 °C. Controls corresponding to the bacterial suspensions without peptide were also run. Two independent experiments were performed in triplicate. Results were expressed as the mean ± S.D. of a representative experiment.
substance,measurement,setting,value
FLPALAGIAGLLGKIF-NH2 [Temporin-SHe],MIC,E. faecalis ATCC 29212,12.5 µM
same,"cytoplasmic membrane permeabilization (ONP production, A405)",S. aureus ST1065,time- and concentration-dependent manner
same,IC50,"[1]; luciferase-expressing promastigotes 1.25 × 10^6 cells/mL, Steady-Glo, mean of three independent experiments in triplicate",11.6 µM
same,Leishmania growth inhibition (L. major),"[1]; peptide 12.5 µM, promastigotes, mean of three independent assays in triplicates",85%
same,LC50 (lethal concentration 50),human THP-1 monocytes,11.4 µM
same,"cytoplasmic membrane permeabilization (ONP production, A405)",E. coli ML-35p,time- and concentration-dependent manner
same,MIC,B. megaterium,1.56 µM
same,MIC,L. ivanovii (Li4pVS2),5 µM
same,MIC,S. aureus ATCC BAA-44,3.12 µM
same,MIC,[2],100 µM
same,MIC range,[3],1.56 to 12.5 µM
same,MIC,P. aeruginosa ATCC 27853,60 µM
same,time to total killing,E. coli ATCC 25922,90 min
